Reference: PubChem BioAssay AID2060616 (Molecular Pharmacology Branch, DTP, NCI, 2025)

Test system: 377384-186-R-J1-PDC complex spheroid viability
Test: Anticancer human tumor 377384-186-R-J1-PDC patient-derived pancreatic carcinoma cell line growth inhibition [CLK]
Conditions: for IC50: curve of first compound; for viability, T/C: stronger effect = lower value
Text: A high-throughput screen of multi-cell type tumor spheroids was designed to identify active combinations of […] and targeted small molecules. Complex spheroids include a stromal component modeled by human endothelial cells (HUVEC) and fibroblasts modeled by human mesenchymal stem cells (MSCs). The concentration ranges selected for each drug and investigational agent were based upon clinically achievable concentrations if the clinical Cmax of the agent was known.
Compounds. The drugs and investigational agents: cirtuvivint (SM08502; NSC835563), CC-671 (NSC850746), vemurafenib (NSC761431), tapotoclax (NSC804041), sotorasib (NSC818433), adagrasib (NSC831453), MRTX-1133 (NSC836407), BAY2416964 (NSC825713), copanlisib (NSC816437), inavolisib (NSC800729), abemaciclib (NSC768073), osimertinib (NSC779217), entinostat (NSC756642), eltanexor (KPT-8602, NSC794443), venetoclax (NSC766270), ceralasertib (NSC777638), bortezomib (NSC756655), olaparib (NSC753686), talazoparib (NSC767125), alisertib (NSC759677), peposertib (NSC802822), gemcitabine (NSC613327), 5-fluorouracil (NSC19893), SN-38 (NSC673596), oxaliplatin (NSC266046), paclitaxel (NSC125973), and doxorubicin (NSC123127), were obtained from the National Cancer Institute (NCI) Developmental Therapeutics Program Chemical Repository. The FDA-approved anticancer drug set is available from the Developmental Therapeutics Program at https://dtp.cancer.gov/organization/dscb/obtaining/available plates.htm. […] The stock solutions were prepared in dimethyl sulfoxide (DMSO, Sigma-Aldrich, St. Louis, MO, cat. D2650), except for the platinum complexes which were prepared in saline (Quality Biological, Gaithersburg, MD, cat. 114-055-101), at 800-fold the tested concentration and stored at -70 degrees C prior to their use. All drugs and investigational agents were tested over a range starting from a high concentration at or near the clinical Cmax and decreasing in half-log increments. If the clinical Cmax for an agent had not been determined, the highest concentration tested was 10 microM.
Cell Culture. All cells were maintained in an incubator at 37 degrees C and 5% CO2 with 95% humidity. The PDC lines were cultured according to standard operating procedures established by the NCI PDMR. Briefly, all PDCs were thawed and cultured in Matrigel-coated flasks prepared with a working solution of 1X Ham's F-12 nutrient mix, without supplementation (Invitrogen, Waltham, MA, cat. 11765054), 100 U/mL penicillin-streptomycin (Invitrogen, cat. 15140122), and 2.5% Matrigel (Corning Inc., Corning, NY, cat. 354248) for the first three passages. The 947758-054-R-J2-PDC line was cultured in 6B/Colon 1A media, which includes advanced DMEM/F-12 (Thermo Fisher Scientific, cat. 12634028), 10 mM HEPES (Thermo Fisher Scientific, cat. 15630080), 1X GlutaMAX supplement (Thermo Fisher Scientific, cat. 35050061), 0.1 mg/mL primocin (InvivoGen, cat. ant-pm-2), 10% defined fetal bovine serum, heat inactivated (HyClone Laboratories Inc., cat. SH30070.03HI), 1.25 mM N-Acetyl-L-cysteine (Sigma-Aldrich, cat. A9165), 10 mM nicotinamide (Sigma-Aldrich, cat. N0636), 1X B-27 supplement (Thermo Fisher Scientific, cat. 17504044), 1X N-2 supplement (Thermo Fisher Scientific, cat. 17502048), and 10 microM Y-27632 dihydrochloride (Tocris Bioscience, cat. 1254). The 876862-298-R-J1-PDC was cultured in 6E media, which includes all 6B/Colon 1A media components plus 50% L-WRN conditioned media (ATCC, cat. CRL-3276), 50 ng/mL recombinant human EGF recombinant protein (hEGF; Thermo Fisher Scientific, cat. PHG0311), 10 ng/mL recombinant human fibroblast growth factor 10 (hGFG-10; PeproTech, cat. 100-26), 1 ng/mL recombinant human fibroblast growth factor 2 (hFGF-2; PeproTech, cat. 100-18B), and 1 µM prostaglandin E2 (PGE2; Tocris, cat. 2296). The 227483-062-R1-J1-PDC line was cultured in Panc media, containing all 6E components except hFGF-2, with the addition of 500 nM SB-431542 (Selleckchem, cat. S1067) and 10 nM gastrin (Tocris, cat. 3006). […]

[1] = second compound 0.0316 µM, first compound 0.0316 µM
[2] = second compound 0.0316 µM, first compound 0.1 µM
[3] = second compound 0.0316 µM, first compound 0.316 µM
[4] = second compound 0.0316 µM, first compound 1 µM
[5] = second compound 0.1 µM, first compound 0.0316 µM
[6] = second compound 0.1 µM, first compound 0.1 µM
[7] = second compound 0.1 µM, first compound 0.316 µM
[8] = second compound 0.1 µM, first compound 1 µM
[9] = second compound 0.316 µM, first compound 0.0316 µM
[10] = second compound 0.316 µM, first compound 0.1 µM
[11] = second compound 0.316 µM, first compound 0.316 µM
[12] = second compound 0.316 µM, first compound 1 µM
[13] = second compound 1 µM, first compound 0.0316 µM
[14] = second compound 1 µM, first compound 0.1 µM
[15] = second compound 1 µM, first compound 0.316 µM
[16] = second compound 1 µM, first compound 1 µM
[17] = second compound 3.16 µM, first compound 0.0316 µM
[18] = second compound 3.16 µM, first compound 0.1 µM
[19] = second compound 3.16 µM, first compound 0.316 µM
[20] = second compound 3.16 µM, first compound 1 µM
[21] = second compound 10 µM, first compound 0.0316 µM
[22] = second compound 10 µM, first compound 0.1 µM
[23] = second compound 10 µM, first compound 0.316 µM
[24] = second compound 10 µM, first compound 1 µM
[25] = second compound 0.0316 µM, first compound 0.00316 µM
[26] = second compound 0.0316 µM, first compound 0.01 µM
[27] = second compound 0.1 µM, first compound 0.00316 µM
[28] = second compound 0.1 µM, first compound 0.01 µM
[29] = second compound 0.316 µM, first compound 0.00316 µM
[30] = second compound 0.316 µM, first compound 0.01 µM
[31] = second compound 1 µM, first compound 0.00316 µM
[32] = second compound 1 µM, first compound 0.01 µM
[33] = second compound 3.16 µM, first compound 0.00316 µM
[34] = second compound 3.16 µM, first compound 0.01 µM
[35] = second compound 10 µM, first compound 0.00316 µM
[36] = second compound 10 µM, first compound 0.01 µM
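Also: spheroids exposed to agents for 7 days before reading.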
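For viability, T/C in this document: luminescence signal used as a stand-in for viable cells.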

SMILES: CC(Nc1ccc2c(c1)OCCn1cc(N3C(=O)OCC3C(F)F)nc1-2)C(N)=O (stereo unspecified) + CN1CCN(c2cc(C(=O)Nc3cc4cc(-c5cnn(C)c5)ccc4cn3)ccn2)CC1
- IC50 (second compound 0.0316 µM): 5170 nM
- IC50 (second compound 0.1 µM): 1460 nM
- IC50 (second compound 0.316 µM): < 31.6 nM
- IC50 (second compound 1 µM): < 31.6 nM
- IC50 (second compound 3.16 µM): < 31.6 nM
- IC50 (second compound 10 µM): < 31.6 nM
- viability, T/C [1]: 85.8%
- viability, T/C [2]: 83.1%
- viability, T/C [3]: 72.2%
- viability, T/C [4]: 69.4%
- viability, T/C (second compound 0.0316 µM, first compound 3.16 µM): 53.4%
- viability, T/C (second compound 0.0316 µM, first compound 10 µM): 43.4%
- viability, T/C [5]: 90%
- viability, T/C [6]: 79.3%
- viability, T/C [7]: 50.6%
- viability, T/C [8]: 57.4%
- viability, T/C (second compound 0.1 µM, first compound 3.16 µM): 50.5%
- viability, T/C (second compound 0.1 µM, first compound 10 µM): 39.4%
- viability, T/C [9]: 23.5%
- viability, T/C [10]: 23.6%
- viability, T/C [11]: 18.5%
- viability, T/C [12]: 19.8%
- viability, T/C (second compound 0.316 µM, first compound 3.16 µM): 18.3%
- viability, T/C (second compound 0.316 µM, first compound 10 µM): 18.4%
- viability, T/C [13]: 2.08%
- viability, T/C [14]: 1.88%
- viability, T/C [15]: 2.17%
- viability, T/C [16]: 1.6%
- viability, T/C (second compound 1 µM, first compound 3.16 µM): 1.66%
- viability, T/C (second compound 1 µM, first compound 10 µM): 2.21%
- viability, T/C [17]: 0.29%
- viability, T/C [18]: 0.96%
- viability, T/C [19]: 0.62%
- viability, T/C [20]: 0.3%
- viability, T/C (second compound 3.16 µM, first compound 3.16 µM): 0.47%
- viability, T/C (second compound 3.16 µM, first compound 10 µM): 0.64%
- viability, T/C [21]: 0.32%
- viability, T/C [22]: 1.36%
- viability, T/C [23]: 0.49%
- viability, T/C [24]: 0.37%
- viability, T/C (second compound 10 µM, first compound 3.16 µM): 0.69%
- viability, T/C (second compound 10 µM, first compound 10 µM): 0.37%

SMILES: CCN1CCN(Cc2ccc(Nc3ncc(F)c(-c4cc(F)c5nc(C)n(C(C)C)c5c4)n3)nc2)CC1 + CN1CCN(c2cc(C(=O)Nc3cc4cc(-c5cnn(C)c5)ccc4cn3)ccn2)CC1
- IC50 (second compound 0.0316 µM): 364 nM
- IC50 (second compound 0.1 µM): 514 nM
- IC50 (second compound 0.316 µM): < 3.16 nM
- IC50 (second compound 1 µM): < 3.16 nM
- IC50 (second compound 3.16 µM): < 3.16 nM
- IC50 (second compound 10 µM): < 3.16 nM
- viability, T/C [25]: 107%
- viability, T/C [26]: 78.2%
- viability, T/C [1]: 84%
- viability, T/C [2]: 66.3%
- viability, T/C [3]: 48.8%
- viability, T/C [4]: 39.5%
- viability, T/C [27]: 98.1%
- viability, T/C [28]: 101%
- viability, T/C [5]: 76.7%
- viability, T/C [6]: 79.8%
- viability, T/C [7]: 54.6%
- viability, T/C [8]: 40.5%
- viability, T/C [29]: 24.1%
- viability, T/C [30]: 28.6%
- viability, T/C [9]: 26%
- viability, T/C [10]: 22.9%
- viability, T/C [11]: 24.4%
- viability, T/C [12]: 24.4%
- viability, T/C [31]: 1.06%
- viability, T/C [32]: 1.3%
- viability, T/C [13]: 1.79%
- viability, T/C [14]: 1.66%
- viability, T/C [15]: 1.27%
- viability, T/C [16]: 1.25%
- viability, T/C [33]: 0.33%
- viability, T/C [34]: 0.44%
- viability, T/C [17]: 1.09%
- viability, T/C [18]: 0.39%
- viability, T/C [19]: 2.28%
- viability, T/C [20]: 2.3%
- viability, T/C [35]: 1.2%
- viability, T/C [36]: 0.43%
- viability, T/C [21]: 0.55%
- viability, T/C [22]: 0.44%
- viability, T/C [23]: 1.76%
- viability, T/C [24]: 0.24%

SMILES: COc1c(OCCCN2CCOCC2)ccc2c3n(c(=NC(=O)c4cnc(N)nc4)nc12)CCN3 + CN1CCN(c2cc(C(=O)Nc3cc4cc(-c5cnn(C)c5)ccc4cn3)ccn2)CC1
- IC50 (second compound 0.0316 µM): 41.8 nM
- IC50 (second compound 0.1 µM): 38.9 nM
- IC50 (second compound 0.316 µM): < 3.16 nM
- IC50 (second compound 1 µM): < 3.16 nM
- IC50 (second compound 3.16 µM): < 3.16 nM
- IC50 (second compound 10 µM): < 3.16 nM
- viability, T/C [25]: 103%
- viability, T/C [26]: 72.8%
- viability, T/C [1]: 55.2%
- viability, T/C [2]: 37.8%
- viability, T/C [3]: 24.9%
- viability, T/C [4]: 15%
- viability, T/C [27]: 89.9%
- viability, T/C [28]: 77.2%
- viability, T/C [5]: 48%
- viability, T/C [6]: 37.6%
- viability, T/C [7]: 25.3%
- viability, T/C [8]: 14.5%
- viability, T/C [29]: 31.7%
- viability, T/C [30]: 22.1%
- viability, T/C [9]: 18.7%
- viability, T/C [10]: 16.6%
- viability, T/C [11]: 14.2%
- viability, T/C [12]: 11.9%
- viability, T/C [31]: 2.68%
- viability, T/C [32]: 2.64%
- viability, T/C [13]: 1.8%
- viability, T/C [14]: 1.85%
- viability, T/C [15]: 2.19%
- viability, T/C [16]: 2.43%
- viability, T/C [33]: 0.37%
- viability, T/C [34]: 0.47%
- viability, T/C [17]: 0.92%
- viability, T/C [18]: 0.45%
- viability, T/C [19]: 0.44%
- viability, T/C [20]: 1.06%
- viability, T/C [35]: 0.5%
- viability, T/C [36]: 0.28%
- viability, T/C [21]: 0.28%
- viability, T/C [22]: 0.32%
- viability, T/C [23]: 0.33%
- viability, T/C [24]: 0.34%
